Several values for one entry are separate records, joined by “and”; a condition that tells them apart may be missing. Equal entries are not always repeated.
The molecules below were run against Voltage-dependent L-type calcium channel subunit alpha-1C (Rattus norvegicus, UniProt P22002).
Voltage-dependent L-type calcium channel subunit alpha-1C, sequence (P22002 whole entry): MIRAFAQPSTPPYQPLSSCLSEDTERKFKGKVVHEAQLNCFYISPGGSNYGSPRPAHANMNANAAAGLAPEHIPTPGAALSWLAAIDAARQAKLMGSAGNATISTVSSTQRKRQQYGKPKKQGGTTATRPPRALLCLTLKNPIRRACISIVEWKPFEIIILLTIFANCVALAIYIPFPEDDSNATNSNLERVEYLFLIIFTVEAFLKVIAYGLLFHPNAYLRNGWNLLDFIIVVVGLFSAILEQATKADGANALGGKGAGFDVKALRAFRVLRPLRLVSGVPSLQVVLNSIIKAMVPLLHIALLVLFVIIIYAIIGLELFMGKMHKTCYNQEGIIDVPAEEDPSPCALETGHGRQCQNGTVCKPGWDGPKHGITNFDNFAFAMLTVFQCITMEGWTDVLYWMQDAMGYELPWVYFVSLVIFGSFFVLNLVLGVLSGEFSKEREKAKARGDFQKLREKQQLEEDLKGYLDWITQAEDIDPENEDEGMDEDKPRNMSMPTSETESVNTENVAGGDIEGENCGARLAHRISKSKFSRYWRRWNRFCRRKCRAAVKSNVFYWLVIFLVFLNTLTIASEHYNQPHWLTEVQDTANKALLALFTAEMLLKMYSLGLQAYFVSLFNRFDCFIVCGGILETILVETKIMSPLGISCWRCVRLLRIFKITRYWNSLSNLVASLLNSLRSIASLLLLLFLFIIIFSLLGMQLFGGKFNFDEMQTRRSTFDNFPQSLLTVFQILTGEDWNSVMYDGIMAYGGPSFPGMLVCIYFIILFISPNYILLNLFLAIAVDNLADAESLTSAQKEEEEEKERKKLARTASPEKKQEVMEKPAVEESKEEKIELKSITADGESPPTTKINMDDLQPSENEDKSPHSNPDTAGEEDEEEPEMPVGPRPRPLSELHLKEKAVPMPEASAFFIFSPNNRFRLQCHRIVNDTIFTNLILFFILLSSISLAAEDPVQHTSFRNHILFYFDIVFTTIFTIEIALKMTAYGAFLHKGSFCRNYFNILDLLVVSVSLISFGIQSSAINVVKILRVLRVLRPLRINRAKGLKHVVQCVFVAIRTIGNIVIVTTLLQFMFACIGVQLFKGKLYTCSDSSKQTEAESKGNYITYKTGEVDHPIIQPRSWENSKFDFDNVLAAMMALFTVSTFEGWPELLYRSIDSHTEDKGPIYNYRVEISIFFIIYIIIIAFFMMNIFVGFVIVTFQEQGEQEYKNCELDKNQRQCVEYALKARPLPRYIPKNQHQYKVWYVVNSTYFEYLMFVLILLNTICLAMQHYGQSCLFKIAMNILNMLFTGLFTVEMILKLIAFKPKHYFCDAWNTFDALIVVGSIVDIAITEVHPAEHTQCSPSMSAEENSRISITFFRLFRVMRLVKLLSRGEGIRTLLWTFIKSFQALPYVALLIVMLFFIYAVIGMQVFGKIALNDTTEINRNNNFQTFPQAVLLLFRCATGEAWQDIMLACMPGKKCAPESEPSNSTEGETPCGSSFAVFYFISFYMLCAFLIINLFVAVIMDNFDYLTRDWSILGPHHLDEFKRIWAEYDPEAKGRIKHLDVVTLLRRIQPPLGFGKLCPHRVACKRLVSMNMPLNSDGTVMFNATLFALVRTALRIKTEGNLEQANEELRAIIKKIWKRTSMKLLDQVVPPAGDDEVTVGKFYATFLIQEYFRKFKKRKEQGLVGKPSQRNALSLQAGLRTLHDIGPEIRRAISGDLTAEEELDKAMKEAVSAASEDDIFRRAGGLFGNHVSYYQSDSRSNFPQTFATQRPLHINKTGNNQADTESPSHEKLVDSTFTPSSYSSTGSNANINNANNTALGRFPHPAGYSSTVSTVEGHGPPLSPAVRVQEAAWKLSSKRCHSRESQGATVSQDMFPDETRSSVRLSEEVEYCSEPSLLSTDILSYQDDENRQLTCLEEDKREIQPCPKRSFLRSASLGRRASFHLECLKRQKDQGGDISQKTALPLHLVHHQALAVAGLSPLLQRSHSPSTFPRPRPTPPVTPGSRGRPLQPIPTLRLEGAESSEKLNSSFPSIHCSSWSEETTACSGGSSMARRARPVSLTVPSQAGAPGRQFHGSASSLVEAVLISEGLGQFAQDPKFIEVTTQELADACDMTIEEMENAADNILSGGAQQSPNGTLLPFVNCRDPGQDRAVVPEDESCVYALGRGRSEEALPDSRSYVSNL
With COC(=O)C1C(C)=NC(C)=C(C(=O)OCC(C)C)C1c1ccccc1[N+](=O)[O-] (stereo not drawn) [CAS_4499] the Ki was 0.33 nM and 0.5 nM. In the case of COc1ccc(CCN(C)CCCC(C#N)(c2cc(OC)c(OC)c(OC)c2)C(C)C)cc1OC (stereo not drawn) [GALLOPAMIL], the Ki is reported as 42 nM. In the case of COCCOC(=O)C1=C(C)N=C(C)C(C(=O)OC(C)C)C1c1cccc([N+](=O)[O-])c1 (stereo not drawn) [Nimotop], the Ki is reported as 0.56 nM and 0.79 nM.

— BindingDB's records for doi:10.1016/0024-3205(82)90293-4 (University of Arizona, 1982)
